# Experimental data taken from US6781000B1, “Alpha-ketoamide inhibitors of 20S proteasome” (CV Theurapeutics, Inc., priority 1998, dated 2004).
# Target: T1, chymotrypsin-like activity of 20S proteasome (Bos taurus, UniProt Q2TBX6+Q32KL2)
# T1 construct: was purified to homogeneity from bovine brain according to published methods; from tissue; host or cells: bovine brain
# Assay: 20S proteasome chymotryptic activity inhibition assay (Suc-Leu-Leu-Val-Tyr-AMC cleavage)
# Type: biochemical
# Conditions: 2 μg 20S proteasome from bovine brain, 50 μM fluorogenic substrate, 15 minutes at 37° C., pH7.5
# Protocol: Compounds of this invention prepared according to the method of Example 1 were tested as follows. The 20S catalytic subunit of the proteasome (also known as the multicatalytic proteinase complex) was purified to homogeneity from bovine brain according to published methods (Wilk S. and Orlowski,M 1983, 40 842 J.Neurochem). The chymotryptic activity of the complex is measured by the increase in fluorescence following cleavage of the substrate peptide succinyl-leucine-leucine-valine-tyrosine-7-amino-4methyl coumarin. The standard in vitro assay consists of 2 μg 20S proteasome, 0.1-100 μg/ml proteasome inhibitor in 200 μl 50 mM HEPES, containing 0.1% sodium dodecyl sulphate, pH7.5. The proteolytic reaction is initiated by the addition of 50 μM flourogenic peptide substrate and allowed to progress for 15 minutes at 37° C. The reaction is terminated by the addition of 100 μL of 100 mM acetate buffer, pH4.0. The rate of proteolysis is directly proportional to the amount of liberated aminomethylcoumarin which is measured by fluorescent spectroscopy (EX 370 nm, EM 430 nm).
SMILES,IC50 for the inhibition of the chymotrypsin-like activity of 20S proteasome,IC50
CC(C)CC(NC(=O)C(C)NC(=O)C(=O)Cc1c[nH]c2ccccc12)C(=O)NCC(=O)O (centres unmarked) [Compound 57],>10 µg/mL,
CC(C)C[C@@H](NC(=O)[C@H](CC(=O)O)NC(=O)C(=O)Cc1c[nH]c2ccccc12)C(=O)NCC(=O)O [Compound 58],,> 20.5 µM
CC(C)C[C@@H](NC(=O)[C@@H](NC(=O)C(=O)Cc1c[nH]c2ccccc12)C(C)C)C(=O)NCC(=O)O [Compound 59],,> 21.2 µM
CCCC(NC(=O)C(=O)Cc1c[nH]c2ccccc12)C(=O)NC(CC(C)C)C(=O)NCC(=O)O (centres unmarked) [Compound 60],>10 µg/mL,
CC(C)CC(NC(=O)C(Cc1ccc(O)cc1)NC(=O)C(=O)Cc1c[nH]c2ccccc12)C(=O)NCC(=O)O (centres unmarked) [Compound 61],>10 µg/mL,
CCC(C)C(NC(=O)C(=O)Cc1c[nH]c2ccccc12)C(=O)NC(CC(C)C)C(=O)NCC(=O)O (centres unmarked) [Compound 62],>10 µg/mL,
CC(C)CC(NC(=O)C(CC1CCCCC1)NC(=O)C(=O)Cc1c[nH]c2ccccc12)C(=O)NCC(=O)O (centres unmarked) [Compound 63],>10 µg/mL,
CC(C)CC(NC(=O)C(Cc1cccnc1)NC(=O)C(=O)Cc1c[nH]c2ccccc12)C(=O)NCC(=O)O (centres unmarked) [Compound 64],>10 µg/mL,
CC(C)CC(NC(=O)C(Cc1ccc2ccccc2c1)NC(=O)C(=O)Cc1c[nH]c2ccccc12)C(=O)NCC(=O)O (centres unmarked) [Compound 65],>10 µg/mL,
CC(C)CC(NC(=O)C(Cc1ccc(-c2ccccc2)cc1)NC(=O)C(=O)Cc1c[nH]c2ccccc12)C(=O)NCC(=O)O (centres unmarked) [Compound 66],>10 µg/mL,
CC(C)CC(NC(=O)CNC(=O)C(=O)Cc1c[nH]c2ccccc12)C(=O)NC(C)C(=O)O (centres unmarked) [Compound 67],>10 µg/mL,
CC(C)CC(NC(=O)CCNC(=O)C(=O)Cc1c[nH]c2ccccc12)C(=O)NC(C)C(=O)O (centres unmarked) [Compound 68],>10 µg/mL,
CCCCC(NC(=O)C(=O)Cc1c[nH]c2ccccc12)C(=O)NC(CC(C)C)C(=O)NC(C)C(=O)O (centres unmarked) [Compound 69],>10 µg/mL,
CC(C)CC(NC(=O)C(Cc1ccccc1)NC(=O)C(=O)Cc1c[nH]c2ccccc12)C(=O)NC(C)C(=O)O (centres unmarked) [Compound 70],>10 µg/mL,
CC(C)CC(NC(=O)C(NC(=O)C(=O)Cc1c[nH]c2ccccc12)C(C)O)C(=O)NC(C)C(=O)O (centres unmarked) [Compound 71],>10 µg/mL,
CC(C)CC(NC(=O)C(C)NC(=O)OCc1c[nH]c2ccccc12)C(=O)NC(C)C(=O)O (centres unmarked) [Compound 72],>10 µg/mL,
CC(C)CC(NC(=O)C(CC(=O)O)NC(=O)OCc1c[nH]c2ccccc12)C(=O)NC(C)C(=O)O (centres unmarked) [Compound 73],>10 µg/mL,

# Results, then the molecule that gave them:
IC50 for the inhibition of the chymotrypsin-like activity of 20S proteasome,IC50,SMILES
>10 µg/mL,,CC(C)CC(NC(=O)C(NC(=O)C(=O)Cc1c[nH]c2ccccc12)C(C)C)C(=O)NC(C)C(=O)O (centres unmarked) [Compound 74]
,> 20.6 µM,CCCC(NC(=O)C(=O)Cc1c[nH]c2ccccc12)C(=O)NC(CC(C)C)C(=O)NC(C)C(=O)O (centres unmarked) [Compound 75]
>10 µg/mL,,CC(C)CC(NC(=O)C(Cc1ccc(O)cc1)NC(=O)C(=O)Cc1c[nH]c2ccccc12)C(=O)NC(C)C(=O)O (centres unmarked) [Compound 76]
,> 20 µM,CCC(C)C(NC(=O)C(=O)Cc1c[nH]c2ccccc12)C(=O)NC(CC(C)C)C(=O)NC(C)C(=O)O (centres unmarked) [Compound 77]
>10 µg/mL,,CC(C)CC(NC(=O)C(CC1CCCCC1)NC(=O)C(=O)Cc1c[nH]c2ccccc12)C(=O)NC(C)C(=O)O (centres unmarked) [Compound 78]
>10 µg/mL,,CC(C)CC(NC(=O)C(Cc1cccnc1)NC(=O)C(=O)Cc1c[nH]c2ccccc12)C(=O)NC(C)C(=O)O (centres unmarked) [Compound 79]
>10 µg/mL,,CC(C)CC(NC(=O)C(Cc1ccc2ccccc2c1)NC(=O)C(=O)Cc1c[nH]c2ccccc12)C(=O)NC(C)C(=O)O (centres unmarked) [Compound 80]
,> 16.4 µM,CC(C)CC(NC(=O)C(Cc1ccc(-c2ccccc2)cc1)NC(=O)C(=O)Cc1c[nH]c2ccccc12)C(=O)NC(C)C(=O)O (centres unmarked) [Compound 81]
,> 18.6 µM,CC(C)CC(NC(=O)CNC(=O)C(=O)Cc1c[nH]c2ccccc12)C(=O)NC(Cc1ccc(O)cc1)C(=O)O (centres unmarked) [Compound 82]
>10 µg/mL,,CC(C)CC(NC(=O)C(NC(=O)C(=O)Cc1c[nH]c2ccccc12)C(C)O)C(=O)NC(Cc1ccc(O)cc1)C(=O)O (centres unmarked) [Compound 83]
>10 µg/mL,,CC(C)CC(NC(=O)CCNC(=O)C(=O)Cc1c[nH]c2ccccc12)C(=O)NC(Cc1ccc(O)cc1)C(=O)O (centres unmarked) [Compound 84]
>10 µg/mL,,CC(C)CC(NC(=O)C(=O)Cc1c[nH]c2ccccc12)C(=O)NC(CC(C)C)C(=O)NCC(=O)O (centres unmarked) [Compound 85]
,> 16.9 µM,CC(C)CC(NC(=O)C(=O)Cc1c[nH]c2ccccc12)C(=O)NC(CC(C)C)C(=O)NC(Cc1ccc(O)cc1)C(=O)O (centres unmarked) [Compound 88]
>10 µg/mL,,CC(C)CC(NC(=O)CNC(=O)C(=O)Cc1c[nH]c2ccccc12)C(=O)NC(CO)C(=O)O (centres unmarked) [Compound 89]
>10 µg/mL,,CC(C)CC(NC(=O)CCNC(=O)C(=O)Cc1c[nH]c2ccccc12)C(=O)NC(CO)C(=O)O (centres unmarked) [Compound 90]
,> 19.4 µM,CCCC[C@H](NC(=O)C(=O)Cc1c[nH]c2ccccc12)C(=O)N[C@H](CC(C)C)C(=O)N[C@@H](CO)C(=O)O [Compound 91]
>10 µg/mL,,CC(C)CC(NC(=O)C(Cc1ccccc1)NC(=O)C(=O)Cc1c[nH]c2ccccc12)C(=O)NC(CO)C(=O)O (centres unmarked) [Compound 92]
>10 µg/mL,,CC(C)CC(NC(=O)C(NC(=O)C(=O)Cc1c[nH]c2ccccc12)C(C)O)C(=O)NC(CO)C(=O)O (centres unmarked) [Compound 93]
>10 µg/mL,,CC(C)CC(NC(=O)C(C)NC(=O)C(=O)Cc1c[nH]c2ccccc12)C(=O)NC(CO)C(=O)O (centres unmarked) [Compound 94]
>10 µg/mL,,CC(C)CC(NC(=O)C(CC(=O)O)NC(=O)C(=O)Cc1c[nH]c2ccccc12)C(=O)NC(CO)C(=O)O (centres unmarked) [Compound 95]
>10 µg/mL,,CC(C)CC(NC(=O)C(NC(=O)C(=O)Cc1c[nH]c2ccccc12)C(C)C)C(=O)NC(CO)C(=O)O (centres unmarked) [Compound 96]
>10 µg/mL,,CCCC(NC(=O)C(=O)Cc1c[nH]c2ccccc12)C(=O)NC(CC(C)C)C(=O)NC(CO)C(=O)O (centres unmarked) [Compound 97]
>10 µg/mL,,CC(C)CC(NC(=O)C(Cc1ccc(O)cc1)NC(=O)C(=O)Cc1c[nH]c2ccccc12)C(=O)NC(CO)C(=O)O (centres unmarked) [Compound 98]
>10 µg/mL,,CCC(C)C(NC(=O)C(=O)Cc1c[nH]c2ccccc12)C(=O)NC(CC(C)C)C(=O)NC(CO)C(=O)O (centres unmarked) [Compound 99]
